Assay results published in article PMC8621172, “Manipulating Estrogenic/Anti-Estrogenic Activity of Triphenylethylenes towards Development of Novel Anti-Neoplastic SERMs” (International Journal of Molecular Sciences, 2021).
Values joined by “and” are separate entries in the source; they are usually repeats but may differ in a detail not shown here. Identical values can stand only once.

Tests used:
human ERα = molecular target: T1, human ERα (Homo sapiens, UniProt P03372); test: Yeast estrogen screen (YES) assay, agonistic activity (β-galactosidase reporter); format: cell-based; details: triplicates; for Estrogenic Activity (relative β-galactosidase activity): compounds at 1 µM, compared to DMSO (set as 1); for EC50: YES assay
T1 construct: host or cells: Saccharomyces cerevisiae
T1 sequence (P03372 1-595): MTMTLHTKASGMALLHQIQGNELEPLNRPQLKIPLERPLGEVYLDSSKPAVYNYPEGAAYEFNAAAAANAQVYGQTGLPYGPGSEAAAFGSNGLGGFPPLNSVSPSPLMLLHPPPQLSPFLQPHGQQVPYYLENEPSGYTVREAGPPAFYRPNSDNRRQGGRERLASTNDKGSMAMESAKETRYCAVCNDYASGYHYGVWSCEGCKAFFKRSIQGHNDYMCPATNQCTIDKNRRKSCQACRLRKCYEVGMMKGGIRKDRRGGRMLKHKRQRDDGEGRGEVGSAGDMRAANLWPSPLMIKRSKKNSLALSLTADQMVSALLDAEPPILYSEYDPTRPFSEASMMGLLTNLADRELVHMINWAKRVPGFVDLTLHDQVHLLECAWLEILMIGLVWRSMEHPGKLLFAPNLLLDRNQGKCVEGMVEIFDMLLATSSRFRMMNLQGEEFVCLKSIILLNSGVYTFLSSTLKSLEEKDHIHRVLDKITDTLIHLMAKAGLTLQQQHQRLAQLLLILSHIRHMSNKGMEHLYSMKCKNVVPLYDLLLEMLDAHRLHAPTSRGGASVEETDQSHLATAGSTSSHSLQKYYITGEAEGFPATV
Method: All synthesized compounds were tested for their relative activity in β-galactosidase in a yeast estrogen screen (YES) assay. Compounds were tested for their relative estrogenic/anti-estrogenic activities in comparison to positive and negative controls, respectively. YES assay is a gene reporter assay where the DNA sequence of human ERα is integrated into the yeast genome completed with an expression plasmid carrying estrogen response elements (ERE) in the promoter controlling the expression of the reporter gene lacZ (encoding the enzyme β-galactosidase). In the presence of estrogenic compounds, β-galactosidase is synthesized and secreted into the medium, where it converts the chromogenic substrate chlorophenol red-β-D-galactopyranoside (CRPG) from a yellow to a red product, whose absorbance is measured. […] Therefore, we decided to test the novel compounds in an organ-specific in vitro model using the human Ishikawa endometrial adenocarcinoma cell line.
All synthesized compounds were tested for their relative β-galactosidase activity in a yeast estrogen screen (YES) assay at a concentration of 1 µM using DMSO as control (set as 1).
The yeast estrogen receptor assay was supplied by Dr. J.P. Sumpter (Brunel University, Uxbridge, UK) and was used to determine the relative transactivation activity of the human ERα as formerly described. Briefly, Saccharomyces cerevisiae stably transfected with a human ERα and an estrogen-responsive element fused to the reporter gene lacZ encoding for β-galactosidase were treated with the test substances for about 48 h. The β-galactosidase enzymatic activity was measured in a colorimetric assay using a microplate photometer by hydrolysis of the substrate chlorophenol red β-D-galactopyranoside (Roche Diagnostics, Mannheim, Germany), which leads to the formation of chlorophenol red. This can be measured as an increased absorption at 540 nm. All compounds were diluted in DMSO. […] All compounds were tested in technical quadruplicates and biological triplicates. Statistical analysis was performed by analysis of variance (ANOVA) and Tukey’s post-hoc test with the significance level of p < 0.05.

60 NCI tumor cell lines = test: NCI-60 single-dose growth inhibition screen (SRB); format: cell-based, human; details: for anti-proliferative activity (in words): 10 µM, NCI-60 panel and MCF-7; for inhibition at 10 µM: Homo sapiens, mean over 60 NCI tumor cell lines
Method: The anti-proliferative effects of the novel analogs were tested in vitro by the National Cancer Institute (NCI) on a panel of 60 human tumor cell lines at 10 µM. Compounds that elicited mean growth inhibition ≥50% were selected by the NCI for 5-dose testing.
Compounds were submitted to the Developmental Therapeutics Program (DTP) of the National Cancer Institute (NCI). The program uses a panel of 60 human tumor cell lines representing nine tissue types, including leukemia, non-small cell lung cancer (NSCLC), melanoma, colon cancer, ovarian cancer, CNS cancer, renal cancer, prostate cancer, and breast cancer, to screen for potential new anti-cancer agents. […] Primary screening of synthesized compounds was performed by testing a single high dose of 10 µM in the full NCI-60 panel. The percent growth of treated cells relative to the no-drug control and relative to the time zero number of cells was measured, and a mean graph was provided. The percentage inhibition was then calculated by subtracting the values obtained from 100.
All compounds were subjected to the NCI in vitro disease-oriented human cells screening panel assay. The human tumor cell lines of the cancer-screening panel are grown in RPMI 1640 medium containing 5% fetal bovine serum and 2 mM L-glutamine. For a typical screening experiment, cells are inoculated into 96-well microtiter plates in 100 μL at plating densities ranging from 5000 to 40,000 cells/well depending on the doubling time of individual cell lines. After cell inoculation, the microtiter plates are incubated at 37 °C, 5% CO2, 95% air, and 100% relative humidity for 24 h prior to the addition of experimental drugs. After 24 h, two plates of each cell line are fixed in situ with TCA to represent a measurement of the cell population for each cell line at the time of drug addition. Experimental drugs are solubilized in dimethyl sulfoxide at 400-fold the desired final maximum test concentration and stored frozen prior to use. At the time of drug addition, an aliquot of frozen concentrate is thawed and diluted to twice the desired final maximum test concentration with complete medium containing 50 μg/mL gentamicin. Additional four, 10-fold, or ½ log serial dilutions are made to provide a total of five drug concentrations plus control. Aliquots of 100 μL of these different drug dilutions are added to the appropriate microtiter wells already containing 100 μL of medium, resulting in the required final drug concentrations. Following drug addition, the plates are incubated for an additional 48 h at 37 °C, 5% CO2, 95% air, and 100% relative humidity. For adherent cells, the assay is terminated by the addition of cold TCA. Cells are fixed in situ by the gentle addition of 50 μL of cold 50% (w/v) TCA (final concentration, 10% TCA) and incubated for 60 min at 4 °C. The supernatant is discarded, and the plates are washed five times with tap water and air-dried. Sulforhodamine B (SRB) solution (100 μL) at 0.4% (w/v) in 1% acetic acid is added to each well, and plates are incubated for 10 min at room temperature. After staining, unbound dye is removed by washing five times with 1% acetic acid, and the plates are air-dried. Bound stain is subsequently solubilized with a 10 mM trizma base, and the absorbance is read on an automated plate reader at a wavelength of 515 nm. For suspension cells, the methodology is the same except that the assay is terminated by fixing settled cells at the bottom of the wells by gently adding 50 μL of 80% TCA (final concentration, 16% TCA). Compounds are screened at a dose of 10 µM, hits showing mean growth inhibition over 60 cell lines >50% are escalated for 5-dose screening assay.

Compound | Estrogenic Activity (relative β-galactosidase activity) (human ERα) | anti-proliferative activity (in words) (60 NCI tumor cell lines) | inhibition at 10 µM (60 NCI tumor cell lines) [%] | EC50 (human ERα) [nM]
COc1ccc(C(C)=C(c2ccc(Cl)cc2)c2ccc(OCCN3CCOCC3)cc2)cc1F [Compound 18, E/Z-4-(2-{4-[1-(4-Chlorophenyl)-2-(3-fluoro-4-methoxyphenyl)-propenyl]-phenoxy}-ethyl)-morpholine] | 1.76 ± 0.56 | lacked anti-proliferative activity | 4.23 | –
COc1cc(C(C)=C(c2ccc(Cl)cc2)c2ccc(OCCN3CCCCC3)cc2)ccc1F [Compound 24, E/Z-1-(2-{4-[1-(4-Chlorophenyl)-2-(4-fluoro-3-methoxyphenyl)-propenyl]-phenoxy}-ethyl)-piperidine] | 1.19 ± 0.20 | – | 29.2 | –
COc1ccc(C(C)=C(c2ccc(Cl)cc2)c2ccc(OCCN3CCOCC3)cc2)cc1 [Compound 13, E/Z-4-(2-{4-[1-(4-Chloro-phenyl)-2-(4-methoxy-phenyl)-propenyl]-phenoxy}-ethyl)-morpholine] | 12.41 and 12.41 ± 0.26 | lacked anti-proliferative activity | 7.86 | –
COc1cc(C(C)=C(c2ccc(Cl)cc2)c2ccc(OCCN3CCOCC3)cc2)ccc1F [Compound 25, E/Z-4-(2-{4-[1-(4-Chlorophenyl)-2-(4-fluoro-3-methoxyphenyl)-propenyl]-phenoxy}-ethyl)-morpholine] | 1.31 ± 0.30 | lacked anti-proliferative activity | 12.8 | –
COc1ccc(C(C)=C(c2ccc(Cl)cc2)c2ccc(OCCN3CCCC3)cc2)cc1 [Compound 11, E/Z-1-(2-{4-[1-(4-Chloro-phenyl)-2-(4-methoxy-phenyl)-propenyl]-phenoxy}-ethyl)-pyrrolidine] | 1.98 ± 0.12 | – | 67.8 | –
COc1cc(C(C)=C(c2ccc(O)cc2)c2ccc(Cl)cc2)ccc1F [Compound 4, E/Z-4-[1-(4-Chlorophenyl)-2-(4-fluoro-3-methoxyphenyl)propenyl]-phenol] | 6.62 ± 1.74 | lacked anti-proliferative activity | 15.4 | 258 ± 80
CCN(CC)CCOc1ccc(C(=C(C)c2ccc(F)c(OC)c2)c2ccc(Cl)cc2)cc1 [Compound 28, E/Z-(2-{4-[1-(4-Chlorophenyl)-2-(4-fluoro-3-methoxyphenyl)-propenyl]-phenoxy}-ethyl)-diethyl-amine] | 1.37 ± 0.39 | – | 92.3 | –
CC(=C(c1ccc(Cl)cc1)c1ccc(OCCN2CCCCCC2)cc1)c1ccccc1 [Compound 9, E/Z-1-(2-{4-[1-(4-Chloro-phenyl)-2-phenyl-propenyl]-phenoxy}-ethyl)-azepane] | 6.74 and 6.74 ± 1.67 | – | 25.4 | –
COc1cc(C(C)=C(c2ccc(Cl)cc2)c2ccc(OCCN3CCCC3)cc2)ccc1F [Compound 23, E/Z-1-(2-{4-[1-(4-Chlorophenyl)-2-(4-fluoro-3-methoxyphenyl)-propenyl]-phenoxy}-ethyl)-pyrrolidine] | 1.41 ± 1.01 | – | 46.9 | –
COc1cc(C(C)=C(c2ccc(Cl)cc2)c2ccc(OCCCN(C)C)cc2)ccc1F [Compound 22, E/Z-(3-{4-[1-(4-Chlorophenyl)-2-(4-fluoro-3-methoxyphenyl)-propenyl]-phenoxy}-propyl)-dimethyl-amine] | 1.87 ± 0.74 | – | 18.6 | –
COc1ccc(C(C)=C(c2ccc(Cl)cc2)c2ccc(OCCN3CCCCC3)cc2)cc1F [Compound 17, E/Z-1-(2-{4-[1-(4-Chlorophenyl)-2-(3-fluoro-4-methoxyphenyl)-propenyl]-phenoxy}-ethyl)-piperidine] | 7.28 and 7.28 ± 3.10 | – | 69.1 | 252 ± 8
COc1ccc(C(C)=C(c2ccc(Cl)cc2)c2ccc(OCCN3CCCCCC3)cc2)cc1F [Compound 19, E/Z-1-(2-{4-[1-(4-Chlorophenyl)-2-(3-fluoro-4-methoxyphenyl)-propenyl]-phenoxy}-ethyl)-azepane] | 3.22 and 3.22 ± 1.22 | – | 60.8 | 407 ± 86
CCN(CC)CCOc1ccc(C(=C(C)c2ccc(OC)c(F)c2)c2ccc(Cl)cc2)cc1 [Compound 21, E/Z-(2-{4-[1-(4-Chlorophenyl)-2-(3-fluoro-4-methoxyphenyl)-propenyl]-phenoxy}-ethyl)-diethyl-amine] | 2.40 ± 0.77 | – | 31.2 | 735 ± 13
CC(=C(c1ccc(Cl)cc1)c1ccc(OCCCN(C)C)cc1)c1ccccc1 [Compound 5, E/Z-(3-{4-[1-(4-Chloro-phenyl)-2-phenyl-propenyl]-phenoxy}-propyl)-dimethyl-amine] | 2.25 ± 0.92 | – | 15.4 | –
CC(=C(c1ccc(Cl)cc1)c1ccc(OCCN2CCCCC2)cc1)c1ccccc1 [Compound 7, E/Z-1-(2-{4-[1-(4-Chloro-phenyl)-2-phenyl-propenyl]-phenoxy}-ethyl)-piperidine] | 2.87 ± 0.90 | – | 29 | –
COc1ccc(C(C)=C(c2ccc(Cl)cc2)c2ccc(OCCCN(C)C)cc2)cc1F [Compound 15, E/Z-(3-{4-[1-(4-Chlorophenyl)-2-(3-fluoro-4-methoxyphenyl)-propenyl]-phenoxy}-propyl)-dimethyl-amine] | 7.77 and 7.77 ± 1.9 | – | 47.9 | 440 ± 10
